Experimental data from PubChem BioAssay (NCI).
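Dose response: 5 concentrations. Exposure: 48 h. Format: 96-well plates. Endpoint: linear interpolation; highest concentration if not reached. At the GI50, growth is halved. TGI: total growth inhibition.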

Columns and labels:
Test in all cases: NCI anticancer screen, dose series, 48 h
[1] = test system: LOX IMVI melanoma
[2] = test system: M14 melanoma
[3] = test system: A549 NSCLC
[4] = test system: TK-10 renal
[5] = test system: HT29 colon
[6] = test system: SW-620 colon
[7] = test system: NCI-H23 lung
[8] = test system: OVCAR-5 ovarian
[9] = test system: KM12 colon
[10] = test system: SK-MEL-28 melanoma
[11] = test system: SNB-75 CNS
[12] = test system: EKVX NSCLC
[13] = test system: MOLT-4 leukemia
[14] = test system: NCI/ADR-RES ovarian
[15] = test system: NCI-H522 lung
[16] = test system: MDA-MB-468 breast
[17] = test system: K-562 leukemia
[18] = test system: 786-0 renal
[19] = test system: SF-295 CNS
[20] = test system: NCI-H226 lung
[21] = test system: HOP-92 NSCLC
[22] = test system: SF-268 CNS
[23] = test system: HCT-15 colon
[24] = test system: MDA-MB-435
[25] = test system: SN12C renal
[26] = test system: U251 CNS
[27] = test system: A498 renal
[28] = test system: T-47D breast
[29] = test system: OVCAR-8 ovarian
[30] = test system: RXF 393 renal

CN(CCO)c1oc(-c2ccccc2)nc1[P+](c1ccccc1)(c1ccccc1)c1ccccc1
GI50 [1]: 2.21 µM | TGI [1]: 10.1 µM | GI50 [2]: 2.81 µM | TGI [2]: 12.4 µM | GI50 [3]: 5.22 µM | TGI [3]: 34.6 µM | GI50 [4]: 3.5 µM | TGI [4]: 15.2 µM | GI50 [5]: 2.82 µM | TGI [5]: 21.2 µM | GI50 [6]: 2.9 µM | TGI [6]: 23.1 µM | GI50 [7]: 2.27 µM | TGI [7]: 7.25 µM | GI50 [8]: 2.27 µM | TGI [8]: 8.21 µM | GI50 [9]: 2.12 µM | TGI [9]: 10.2 µM | GI50 [10]: 1.54 µM | TGI [10]: 12.7 µM | GI50 [11]: 1.28 µM | TGI [11]: 5.89 µM | GI50 [12]: 2.35 µM | TGI [12]: 13.4 µM | GI50 [13]: 2.77 µM | TGI [13]: 11.8 µM | GI50 [14]: > 100 µM | TGI [14]: > 100 µM | GI50 [15]: 0.854 µM | TGI [15]: 4.05 µM | GI50 [16]: 0.285 µM | TGI [16]: 1.37 µM | GI50 [17]: 1.01 µM | TGI [17]: 13.6 µM | GI50 [18]: 5.31 µM | TGI [18]: 20.8 µM | GI50 [19]: 2.62 µM | TGI [19]: 9.92 µM | GI50 [20]: 2.73 µM | TGI [20]: 10.9 µM | GI50 [21]: 1.22 µM | TGI [21]: 4.9 µM | GI50 [22]: 3.27 µM | TGI [22]: 14 µM | GI50 [23]: 13.5 µM | TGI [23]: 31.2 µM | GI50 [24]: 1.6 µM | TGI [24]: 9.66 µM | GI50 [25]: 2.4 µM | TGI [25]: 6.88 µM | GI50 [26]: 2.31 µM | TGI [26]: 13.6 µM | GI50 [27]: 6.82 µM | TGI [27]: 22.8 µM | GI50 [28]: 0.517 µM | TGI [28]: 11.2 µM | GI50 [29]: 3.33 µM | TGI [29]: 16.3 µM | GI50 [30]: 1.94 µM
